# Measurements reported in patent US10660877B2 (BRISTOL-MYERS SQUIBB COMPANY, priority 2016, dated 2020).
# Like-named read-outs stand apart in the source and are kept apart here.
# Legend:
# human TLR7 = human TLR7 (Homo sapiens (Human), UniProt Q9NYK1); assay: TLR7 inhibition reporter assay (HEK-Blue cells, SEAP reporter, gardiquimod stimulation); format: cell-based; conditions: HEK-Blue cells overexpressing human TLR7, gardiquimod 7.5 μM
# human TLR8 = human TLR8 (Homo sapiens (Human), UniProt Q9NR97); assay: TLR8 inhibition reporter assay (HEK-Blue cells, SEAP reporter, R848 stimulation);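 note: compounds tested from 0.05 nM to 50 µM, 22 h at 37 °C, SEAP measured with HEK-Blue Detection, inhibition relative to agonist plus DMSO versus a known inhibitor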
# Sequence of human TLR8 (Q9NR97 27-1041): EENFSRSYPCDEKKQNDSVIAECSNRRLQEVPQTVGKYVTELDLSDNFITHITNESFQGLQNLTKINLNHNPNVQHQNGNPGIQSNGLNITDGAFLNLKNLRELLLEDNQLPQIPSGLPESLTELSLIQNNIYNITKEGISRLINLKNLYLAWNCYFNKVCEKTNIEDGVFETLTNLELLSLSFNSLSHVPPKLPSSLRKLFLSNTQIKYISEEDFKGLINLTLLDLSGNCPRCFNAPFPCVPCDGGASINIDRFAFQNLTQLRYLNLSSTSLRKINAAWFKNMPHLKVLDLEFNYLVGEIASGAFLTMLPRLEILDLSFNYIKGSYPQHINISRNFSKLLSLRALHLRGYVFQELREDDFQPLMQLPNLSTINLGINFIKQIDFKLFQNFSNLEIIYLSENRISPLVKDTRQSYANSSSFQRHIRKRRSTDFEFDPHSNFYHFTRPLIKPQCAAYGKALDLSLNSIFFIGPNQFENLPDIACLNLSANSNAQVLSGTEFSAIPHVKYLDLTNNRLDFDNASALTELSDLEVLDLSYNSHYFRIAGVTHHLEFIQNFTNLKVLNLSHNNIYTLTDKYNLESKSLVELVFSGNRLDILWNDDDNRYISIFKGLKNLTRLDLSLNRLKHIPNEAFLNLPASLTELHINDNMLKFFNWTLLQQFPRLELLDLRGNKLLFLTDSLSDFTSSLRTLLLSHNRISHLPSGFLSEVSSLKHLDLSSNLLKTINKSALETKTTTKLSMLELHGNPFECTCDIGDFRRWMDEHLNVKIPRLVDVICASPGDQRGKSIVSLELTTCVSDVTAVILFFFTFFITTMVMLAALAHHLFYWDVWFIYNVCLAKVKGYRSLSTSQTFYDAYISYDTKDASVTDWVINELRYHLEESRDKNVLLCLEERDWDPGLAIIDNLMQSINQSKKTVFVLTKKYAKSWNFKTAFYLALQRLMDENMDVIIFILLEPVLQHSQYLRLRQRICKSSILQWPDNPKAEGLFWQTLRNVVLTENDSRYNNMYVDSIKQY
# human TLR9 = human TLR9 (Homo sapiens (Human), UniProt Q9NR96); assay: TLR9 inhibition reporter assay (HEK-Blue cells, SEAP reporter, ODN2006 stimulation);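 note: compounds tested over 0.05 nM to 50 µM, 22 h incubation, inhibition taken as SEAP signal drop from agonist plus DMSO wells toward a known inhibitor control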
# Sequence of human TLR9 (Q9NR96 26-1032): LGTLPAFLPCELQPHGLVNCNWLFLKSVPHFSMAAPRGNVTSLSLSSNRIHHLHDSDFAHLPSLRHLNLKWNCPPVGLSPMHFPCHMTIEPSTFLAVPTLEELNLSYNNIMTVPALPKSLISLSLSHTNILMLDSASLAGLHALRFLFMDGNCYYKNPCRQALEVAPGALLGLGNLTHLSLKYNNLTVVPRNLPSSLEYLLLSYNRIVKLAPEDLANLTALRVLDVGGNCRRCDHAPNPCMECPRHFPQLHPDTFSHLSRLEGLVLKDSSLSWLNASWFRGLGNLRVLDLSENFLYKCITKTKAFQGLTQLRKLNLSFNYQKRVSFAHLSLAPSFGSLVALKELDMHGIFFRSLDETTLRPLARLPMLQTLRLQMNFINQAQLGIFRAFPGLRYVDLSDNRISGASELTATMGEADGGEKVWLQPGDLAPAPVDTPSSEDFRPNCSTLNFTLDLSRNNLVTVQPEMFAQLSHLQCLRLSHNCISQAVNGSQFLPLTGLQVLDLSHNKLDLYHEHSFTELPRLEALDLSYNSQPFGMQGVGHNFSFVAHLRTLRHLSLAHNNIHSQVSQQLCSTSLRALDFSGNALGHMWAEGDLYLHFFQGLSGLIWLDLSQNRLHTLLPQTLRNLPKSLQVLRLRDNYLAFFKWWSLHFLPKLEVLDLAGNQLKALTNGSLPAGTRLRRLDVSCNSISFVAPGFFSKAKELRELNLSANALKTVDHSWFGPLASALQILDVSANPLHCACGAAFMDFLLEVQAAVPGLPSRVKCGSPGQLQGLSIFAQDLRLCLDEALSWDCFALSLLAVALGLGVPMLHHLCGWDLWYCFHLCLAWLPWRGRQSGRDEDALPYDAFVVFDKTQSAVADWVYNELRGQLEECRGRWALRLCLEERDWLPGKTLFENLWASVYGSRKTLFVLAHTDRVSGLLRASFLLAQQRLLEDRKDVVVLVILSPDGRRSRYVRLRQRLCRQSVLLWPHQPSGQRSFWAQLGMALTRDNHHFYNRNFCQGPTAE
# [1] = TLR8 IC50, HEK-Blue cells overexpressing human TLR8, R848 15.9 μM
# [2] = TLR9 IC50, HEK-Blue cells overexpressing human TLR9, ODN2006 5 nM
# [3] = read-out: TLR8 IC50, HEK-Blue cells overexpressing human TLR8, R848 15.9 μM
# [4] = read-out: TLR9 IC50, HEK-Blue cells overexpressing human TLR9, ODN2006 5 nM
# Sequence of human TLR7 (Q9NYK1 27-1049): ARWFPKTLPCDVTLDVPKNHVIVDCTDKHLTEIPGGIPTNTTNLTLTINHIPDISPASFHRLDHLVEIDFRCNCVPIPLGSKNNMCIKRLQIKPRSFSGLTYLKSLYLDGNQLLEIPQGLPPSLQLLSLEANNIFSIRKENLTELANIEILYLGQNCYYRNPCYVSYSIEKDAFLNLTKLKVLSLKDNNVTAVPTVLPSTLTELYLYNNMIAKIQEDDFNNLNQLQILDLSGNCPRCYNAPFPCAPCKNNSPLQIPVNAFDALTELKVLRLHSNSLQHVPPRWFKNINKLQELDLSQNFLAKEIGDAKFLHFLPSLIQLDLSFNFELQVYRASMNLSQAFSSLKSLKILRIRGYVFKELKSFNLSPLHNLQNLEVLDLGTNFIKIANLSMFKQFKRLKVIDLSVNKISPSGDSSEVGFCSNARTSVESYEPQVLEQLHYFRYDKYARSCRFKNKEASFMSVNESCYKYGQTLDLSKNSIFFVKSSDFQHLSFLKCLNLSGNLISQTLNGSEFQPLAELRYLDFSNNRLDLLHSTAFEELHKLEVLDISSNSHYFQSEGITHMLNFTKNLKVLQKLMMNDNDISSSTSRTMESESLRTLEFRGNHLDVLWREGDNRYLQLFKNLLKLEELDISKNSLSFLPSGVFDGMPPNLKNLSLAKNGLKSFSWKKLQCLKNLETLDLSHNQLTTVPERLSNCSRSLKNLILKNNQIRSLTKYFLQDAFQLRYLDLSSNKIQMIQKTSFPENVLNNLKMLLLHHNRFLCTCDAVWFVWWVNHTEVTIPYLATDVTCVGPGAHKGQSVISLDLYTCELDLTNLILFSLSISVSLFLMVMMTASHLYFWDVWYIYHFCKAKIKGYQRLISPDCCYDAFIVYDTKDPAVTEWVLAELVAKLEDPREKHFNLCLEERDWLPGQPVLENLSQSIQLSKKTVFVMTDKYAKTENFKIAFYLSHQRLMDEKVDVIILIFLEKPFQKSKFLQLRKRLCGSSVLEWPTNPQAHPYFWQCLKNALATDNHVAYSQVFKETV
Structure (SMILES),IC50 (human TLR7) [nM],IC50 (human TLR8; [1]) [nM],IC50 (human TLR9; [2]) [nM],IC50 (human TLR8; [3]) [nM],IC50 (human TLR9; [4]) [nM]
"Cc1cc(-c2[nH]c3ccc(C4CCN(C(=O)CO)CC4)cc3c2C(C)C)cc(C)n1 [Example 116, 1-(4-(2-(2,6-dimethylpyridin-4-yl)-3-isopropyl-1H-indol-5-yl)piperidin-1-yl)-2-hydroxyethan-1-one]",3.4,127,32200,–,–
"Cc1cc(-c2[nH]c3ccc(C4CCN(CC(C)(C)C)CC4)cc3c2C(C)C)cc(C)n1 [Example 470, 2-(2,6-dimethylpyridin-4-yl)-3-isopropyl-5-(1-neopentylpiperidin-4-yl)-1H-indole]",5.9,–,–,23.8,532
"Cc1cc(-c2[nH]c3ccc(C4CCN(C(=O)CNCC(C)(C)N5CCOCC5)CC4)cc3c2C(C)C)cc(C)n1 [Example 371, 1-(4-(2-(2,6-dimethylpyridin-4-yl)-3-isopropyl-1H-indol-5-yl)piperidin-1-yl)-2-((2-methyl-2-morpholinopropyl)amino)ethan-1-one]",3.7,20.4,241,–,–
"Cc1cc(-c2[nH]c3ccc(C4CCNCC4)cc3c2C(C)C)c(C(N)=O)cn1 [Example 15, 4-(3-isopropyl-5-(piperidin-4-yl)-1H-indol-2-yl)-6-methylnicotinamide]",1540,–,–,448,26500
"Cc1cc(-c2[nH]c3ccc(C4CCNCC4)cc3c2C(C)C)c(Cl)c(C)n1 [Example 50, 2-(3-chloro-2,6-dimethylpyridin-4-yl)-3-isopropyl-5-(piperidin-4-yl)-1H-indole]",3.2,–,–,1.9,12700
"Cc1cc(-c2[nH]c3ccc(C4CCN(C(=O)c5ccon5)CC4)cc3c2C(C)C)ccn1 [Example 604, (4-(3-isopropyl-2-(2-methylpyridin-4-yl)-1H-indol-5-yl)piperidin-1-yl)(isoxazol-3-yl)methanone]",24.9,–,–,190,23000
"CC(C)c1c(-c2cc(C3CC3)ncc2F)[nH]c2ccc(C3CCN(C(=O)C4CC(=O)N(C)C4)CC3)cc12 (stereo not drawn) [Example 517, 4-(4-(2-(2-cyclopropyl-5-fluoropyridin-4-yl)-3-isopropyl-1H-indol-5-yl)piperidine-1-carbonyl)-1-methylpyrrolidin-2-one]",144,–,–,1150,> 50000
"Cc1cc(-c2[nH]c3ccc(C4CCN(Cc5ncccn5)CC4)cc3c2C(C)C)cc(C)n1 [Example 460, 2-(2,6-dimethylpyridin-4-yl)-3-isopropyl-5-(1-(pyrimidin-2-ylmethyl)piperidin-4-yl)-1H-indole]",6.2,–,–,5.8,396
"CCc1c(-c2ccnc(OC)c2)[nH]c2ccc(C3CCN(C4CCN(CC(C)C)CC4)CC3)cc12 [Example 780, 3-ethyl-5-(1′-isobutyl-[1,4′-bipiperidin]-4-yl)-2-(2-methoxypyridin-4-yl)-1H-indole]",502,–,–,81.1,412
"CCc1c(-c2ccnc(OC)c2)[nH]c2ccc(C3CCN(C4C[C@H]5CCC[C@@H](C4)N5C)CC3)cc12 (stereo partly drawn) [Example 798, 3-ethyl-2-(2-methoxypyridin-4-yl)-5-(1-((1R,3r,5S)-9-methyl-9-azabicyclo[3.3.1]nonan-3-yl)piperidin-4-yl)-1H-indole]",624,–,–,165,67
"Cc1cc(-c2[nH]c3ccc(C4CCN(Cc5ncon5)CC4)cc3c2C(C)C)c(C)cn1 [Example 734, 3-((4-(2-(2,5-dimethylpyridin-4-yl)-3-isopropyl-1H-indol-5-yl)piperidin-1-yl)methyl)-1,2,4-oxadiazole]",13.8,–,–,6.8,8990
"Cc1cc(-c2[nH]c3ccc(C4CCN(Cc5ccccc5)CC4)cc3c2C(C)C)cc(C)n1 [Example 318, 5-(1-benzylpiperidin-4-yl)-2-(2,6-dimethylpyridin-4-yl)-3-isopropyl-1H-indole]",25.4,–,–,12.6,779
"Cc1cc(-c2[nH]c3ccc(C4CCN(CC(=O)NCC#N)CC4)cc3c2C(C)C)cc(C)n1 [Example 239, N-(cyanomethyl)-2-(4-(2-(2,6-dimethylpyridin-4-yl)-3-isopropyl-1H-indol-5-yl)piperidin-1-yl)acetamide]",6.7,–,–,8.9,1590
"Cc1cc(-c2[nH]c3ccc(C4CCN(CC(=O)N(C)CC(O)c5ccccc5)CC4)cc3c2C(C)C)cc(C)n1 (stereo not drawn) [Example 296, 2-(4-(2-(2,6-dimethylpyridin-4-yl)-3-isopropyl-1H-indol-5-yl)piperidin-1-yl)-N-(2-hydroxy-2-phenylethyl)-N-methylacetamide]",10.5,–,–,46.2,553
"Cc1cc(-c2[nH]c3ccc(C4CCN(CC(N)=O)CC4)cc3c2C(C)C)c(C)cn1 [Example 651, 2-(4-(2-(2,5-dimethylpyridin-4-yl)-3-isopropyl-1H-indol-5-yl)piperidin-1-yl)acetamide]",5.3,–,–,2.1,3740
"CNCCC(=O)N1CCC(c2ccc3[nH]c(-c4ccnc(C)c4)c(C(C)C)c3c2)CC1 [Example 570, 1-(4-(3-isopropyl-2-(2-methylpyridin-4-yl)-1H-indol-5-yl)piperidin-1-yl)-3-(methylamino)propan-1-one]",13.1,–,–,12,971
"Cc1cc(-c2[nH]c3ccc(C4CCN(CC(=O)NC5(C)CCC5)CC4)cc3c2C(C)C)cc(C)n1 [Example 243, 2-(4-(2-(2,6-dimethylpyridin-4-yl)-3-isopropyl-1H-indol-5-yl)piperidin-1-yl)-N-(1-methylcyclobutyl)acetamide]",10,–,–,20,817
"COc1cc(OC)nc(CN2CCC(c3ccc4[nH]c(-c5cc(C)ncc5F)c(C(C)C)c4c3)CC2)n1 [Example 694, 5-(1-((4,6-dimethoxypyrimidin-2-yl)methyl)piperidin-4-yl)-2-(5-fluoro-2-methylpyridin-4-yl)-3-isopropyl-1H-indole]",20.7,–,–,7.8,3690
"Cc1cc(-c2[nH]c3ccc(C4CCN(CCC#N)CC4)cc3c2C(C)C)c(C)cn1 [Example 665, 3-(4-(2-(2,5-dimethylpyridin-4-yl)-3-isopropyl-1H-indol-5-yl)piperidin-1-yl)propanenitrile]",13.6,–,–,2.2,6210
"Cc1cc(-c2[nH]c3ccc(C4CCN(CC(O)c5ccccc5)CC4)cc3c2C(C)C)ccn1 (stereo not drawn) [Example 662, 2-(4-(3-isopropyl-2-(2-methylpyridin-4-yl)-1H-indol-5-yl)piperidin-1-yl)-1-phenylethan-1-ol]",60.6,–,–,29.6,1150
"CCc1c(-c2ccnc(N(C)C)c2)[nH]c2ccc(C3CCN(C4CCN(CC(C)C)CC4)CC3)cc12 [Example 767, 4-(3-ethyl-5-(1′-isobutyl-[1,4′-bipiperidin]-4-yl)-1H-indol-2-yl)-N,N-dimethylpyridin-2-amine]",3750,–,–,1230,98
"Cc1cc(-c2[nH]c3ccc(C4CCN(CC(=O)N(C)CC#N)CC4)cc3c2C(C)C)cc(C)n1 [Example 247, N-(cyanomethyl)-2-(4-(2-(2,6-dimethylpyridin-4-yl)-3-isopropyl-1H-indol-5-yl)piperidin-1-yl)-N-methylacetamide]",3,–,–,4,462
"Cc1cc(-c2[nH]c3ccc(C4CCN(C(=O)CN5CC[C@H](O)C5)CC4)cc3c2C(C)C)cc(C)n1 [Example 380, (S)-1-(4-(2-(2,6-dimethylpyridin-4-yl)-3-isopropyl-1H-indol-5-yl)piperidin-1-yl)-2-(3-hydroxypyrrolidin-1-yl)ethan-1-one]",2,–,–,10.5,354
"Cc1cc(-c2[nH]c3ccc(C4CCN(C(=O)CC(=O)Nc5nccs5)CC4)cc3c2C(C)C)cc(C)n1 [Example 142, 3-(4-(2-(2,6-dimethylpyridin-4-yl)-3-isopropyl-1H-indol-5-yl)piperidin-1-yl)-3-oxo-N-(thiazol-2-yl)propanamide]",18.2,–,–,96.3,> 50000
"CCOC(=O)N1CCC(c2ccc3[nH]c(-c4ccnc(C)c4)c(C(C)C)c3c2)CC1 [Example 560, ethyl 4-(3-isopropyl-2-(2-methylpyridin-4-yl)-1H-indol-5-yl)piperidine-1-carboxylate]",247,–,–,607,10400
"Cc1cc(-c2[nH]c3ccc(C4CCN(C(=O)CN(C)CC#N)CC4)cc3c2C(C)C)cc(C)n1 [Example 423, 2-((2-(4-(2-(2,6-dimethylpyridin-4-yl)-3-isopropyl-1H-indol-5-yl)piperidin-1-yl)-2-oxoethyl)(methyl)amino)acetonitrile]",2.8,–,–,20.8,1330
"Cc1cc(-c2[nH]c3ccc(C4CCN(C5CCCN(C(C)C)C5)CC4)cc3c2C(C)C)ccn1 (stereo not drawn) [Example 707, 3-isopropyl-5-(1′-isopropyl-[1,3′-bipiperidin]-4-yl)-2-(2-methylpyridin-4-yl)-1H-indole]",7.6,–,–,2.8,217
"COc1cc(OC)nc(CN2CCC(c3ccc4[nH]c(-c5cc(C)ncc5C)c(C(C)C)c4c3)CC2)n1 [Example 693, 5-(1-((4,6-dimethoxypyrimidin-2-yl)methyl)piperidin-4-yl)-2-(2,5-dimethylpyridin-4-yl)-3-isopropyl-1H-indole]",33.1,–,–,5.2,1680
